How the values were obtained:
[1] = tested on: hippocampal neuronal cell bodies (NeuN); experiment: Hippocampal neuronal loss in Tg2576 mice subjected to CUMS, binding assay with [125I]-labeled anti-NeuN antibody; format: in vivo; settings: 15 months-old Tg2576 mice, 3 months of CUMS, treated during CUMS; compounds 10 mg/kg/d
[2] = Measurement of serum level in rats by HPLC; format: in vivo, Sprague Dawley rats
Description: Serum concentrations of alizarin were determined with serum isolated from the blood of male and female German shepherd dogs (age: 8-9 months) taken at different time points (0.5 h, 1 h, 2 h, 4 h, 6 h, 8 h, 24 h) after oral intake of the indicated doses for 4 weeks. In addition, serum concentrations of alizarin (Compound-1) were determined in male and female Sprague Dawley rats (body weight: 200-250 g) treated for 1 month and/or three months by oral gavage of alizarin at a once daily dose of 100 mg/kg, 50 mg/kg, 25 mg/kg and 12.5 mg/kg. Serum proteins were removed by acetonitrile precipitation, and alizarin was extracted by chloroform before separation on an HPLC-C18 column (Poroshell 120 EC-C18, 3.0×50 mm, Agilent) with an HPLC system (Agilent 1100 Series) and detection at OD245 nm. For quantitative determination of Compound-7 and Compound-10F in rat and dog serum, serum proteins were also removed by acetonitrile precipitation before HPLC analysis as detailed above and detection at OD254 nm.

[3] = tested on: hyperphosphorylated PHF-Tau; experiment: Hippocampal hyperphosphorylated PHF-Tau in Tg2576 mice subjected to CUMS, binding assay with [125I]-labeled AT8 antibody; format: in vivo; settings: 15 months-old Tg2576 mice, 3 months of CUMS, treated during CUMS; compounds 10 mg/kg/d
[4] = molecular target: T1, Tomm6 (Mitochondrial import receptor subunit TOMM6 homolog) (Mus musculus, UniProt Q9CQN3); experiment: Identification of Compound-1-interacting hippocampal proteins by co-migration in SDS-PAGE and nano-LC-ESI-MS/MS; format: binding, Tg2576 mice; settings: solubilisate of hippocampal proteins supplemented with 10 microM Compound-1
T1 construct: hippocampi were isolated from 5-10 aged Tg2576 mice, pulverized under liquid nitrogen and solubilized; from tissue; host or cells: hippocampus of Tg2576 mice
T1 sequence (Q9CQN3 whole entry): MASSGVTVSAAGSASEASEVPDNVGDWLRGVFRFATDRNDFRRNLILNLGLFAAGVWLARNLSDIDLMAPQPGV
Description: To isolate Compound-1-interacting hippocampal proteins, hippocampi were isolated from 5-10 aged Tg2576 mice, pulverized under liquid nitrogen and solubilized for 30 min at 4° C. in solubilization buffer (1% sodium deoxycholate, 0.05% SDS, 0.05% Tween 20 in PBS, pH 7.4, supplemented with protease inhibitors). Insoluble material was removed by centrifugation. The supernatant was diluted 1:5 in PBS (supplemented with protease inhibitors). To this solubilisate, Compound-1 was added at a concentration of 10 μM. Buffer exchange into 20 mM Tris pH 7.4 was performed by centrifugation over Amicon Ultra Centrifugal Filter Units (MWCO 3 kDa; EMD Millipore Merck KGaA, Darmstadt, Germany). The concentrated proteins were dissolved in Laemmli sample buffer (Bio-Rad GmbH, Munchen, Germany) supplemented with mercaptoethanol (355 mM) and subjected to 8% SDS-PAGE under reducing conditions. Compound-1-interacting proteins were identified by co-migration, protein bands were cut and subjected to nano-LC-ES-MS/MS (performed by Proteome Factory AG, Berlin, Germany). Proteins were identified using MS/MS ion search of the Mascot search engine (Matrix Science, London, England) and nr protein database (National Center for Biotechnology Information, Bethesda, MD). […]

For O=C1c2ccccc2C(=O)c2c1ccc(O)c2O [Compound-1, 1,2-dihydroxyanthraquinone], the hippocampal neuronal loss [1] was “prevented”, the “oral bioavailability / serum concentrations after oral intake” value ([2]; rats) was “achieves therapeutic serum concentrations” and the “oral doses required to achieve equivalent peak serum concentrations, higher in rats compared to dogs” value ([2]; rats vs dogs) was “approximately 10 fold”. The “hippocampal content of hyperphosphorylated PHF-Tau” value [3] was “significantly decreased hippocampal content of hyperphosphorylated PHF-Tau” and the “interaction with Tomm6 (co-migration)” value [4] was “major Compound-1-interacting protein”.
